# Columns and labels:
# [1] = tested on: gastrocnemius (GA) muscle; test: In vivo muscle force after downhill treadmill run, aged mice, gastrocnemius; parameters: species or system mouse
# Procedure: In vivo muscle force measurement: Aged mice (18 mo.) were subjected to downhill treadmill run for 2 consecutive weeks. During week 1, mice ran daily for 5 days and rested on days 6 and 7. […] During week 2, mice were subjected to 5 days treadmill run only. The treadmill run was performed using the Exer3/6 (Columbus Instruments). Mice ran for 10 minutes on the treadmill at 20 degrees downhill, starting at a speed of 7 meters/min. After 3 min, the speed was increased by 1 meter/min to a final speed of 14 meter/min. […] Force measurements were on the GA muscles at week 5 based on a protocol published previously^5. Briefly, for each mouse, an incision was made to expose the GA. We severed the calcaneus bone with intact achilles tendon and attached the tendon-bone complex to a 300C-LR force transducer (Aurora Scientific) with a thin metal hook. The muscles and tendons were kept moist by periodic wetting with saline (0.9% sodium chloride) solution. The lower limb was immobilized below the knee by a metal clamp without compromising the blood supply to the leg. The mouse was under inhaled anesthetic (2% isofluorane) during the entire force measuring procedure and body temperature was maintained by a heat lamp. […] Data were collected with a PCI-6251 acquisition card (National Instruments) and analyzed in Matlab. We calculated specific force values by normalizing the force measurements by the muscle physiological cross-sectional areas (PCSAs), which were similar between the control and the experimental PGE2 treated group (Table 2). PCSA (measured in mm^2) was calculated according to the following equation^12: PCSA (mm^2)=[mass (g)×Cos θ]÷[ρ (g/mm^3)×fiber length (mm)], where θ is pennation angle of the fiber and ρ is muscle density (0.001056 g/mm^3). […]
# The muscle force and synchronization pulses were recorded via a PCI-6251 acquisition card (National Instruments) and analyzed using Matlab. FIGS. 5O-5P show the specific muscle force values that were calculated by normalizing the force measurements with the muscle physiological cross-sectional area. […]
# [2] = tested on: endogenous MuSCs in TA muscle; test: Endogenous MuSC BLI in Pax7CreERT2;Rosa26-LSL-Luc mice after cardiotoxin injury; type: in vivo, mouse; conditions: 13 nmol three days post-cardiotoxin, BLI days 3-14
# Procedure: Bioluminescence imaging: We performed bioluminescence imaging (BLI) using a Xenogen-100 system, as previously described^1,5,6. Briefly, we anesthetized mice using isofluorane inhalation and administered 120 μL D-luciferin (0.1 mmol kg^−1, reconstituted in PBS; Caliper LifeSciences) by intraperitoneal injection. We acquired BLI using a 60 s exposure at F-stop=1.0 at 5 minutes after luciferin injection. Digital images were recorded and analyzed using Living Image software (Caliper LifeSciences). We analyzed images with a consistent region-of-interest (ROI) placed over each hindlimb to calculate a bioluminescence signal. We calculated a bioluminescence signal in radiance (p s^−1 cm^−2 sr^−1) value of 10^4 to define an engraftment threshold. This radiance threshold of 10^4 is approximately equivalent to the total flux threshold in p/s reported previously. This BLI threshold corresponds to the histological detection of one or more GFP+ myofibers^1,5,6. We performed BLI imaging every week after transplantation. […]
# We performed bioluminescence imaging (BLI) using a Xenogen-100 system, as previously described (24, 26, 27, 30). […] Digital images were recorded and analyzed using Living Image software (Caliper LifeSciences). We analyzed images with a consistent region-of-interest (ROI) placed over each hindlimb to calculate a bioluminescence signal. We calculated a bioluminescence signal in radiance (p s^−1 cm^−2 sr^−1) value of 10^4 to define an engraftment threshold. […]
# Bioluminescent Imaging: For bioluminescence imaging (BLI), we anesthetized mice using isofluorane inhalation and administered 120 μL D-luciferin (0.1 mmol kg^−1, reconstituted in PBS; Caliper LifeSciences) by intraperitoneal injection. […] Digital images were recorded and analyzed using Living Image software (Caliper LifeSciences). We analyzed images with a consistent region-of-interest (ROI) placed over each hindlimb to calculate a bioluminescence signal. We calculated a bioluminescence signal in radiance (p s^−1 cm^−2 sr^−1) value of 10^4 to define an engraftment threshold. […]
# [3] = 13 nM dmPGE2 daily for 5 days after downhill treadmill run, force at week 5
SMILES,"specific twitch force of gastrocnemius muscles (Example 2) ([1]; treadmill to exhaustion daily for 10 days, 3 nM PGE2 after each run, force 4 weeks after last run)",BLI of endogenous MuSCs after injury and PGE2/dmPGE2 [2],"specific tetanic force of gastrocnemius [1, 3]","specific twitch force of gastrocnemius [1, 3]"
"CCCCC[C@H](O)/C=C/[C@H]1[C@H](O)CC(=O)[C@@H]1C/C=C\CCCC(=O)O [PGE2, prostaglandin E2]",increase in specific twitch force,in agreement with the histological data,–,–
"CCCCC(C)(C)[C@H](O)/C=C/[C@H]1[C@H](O)CC(=O)[C@@H]1C/C=C\CCCC(=O)O [dmPGE2, 16,16-dimethyl prostaglandin E2]",–,in agreement with the histological data,significantly increased,significantly increased

# From patent publication US11738031B2, “Compositions and methods for preventing or treating muscle conditions” (The Board of Trustees of the Leland Stanford Junior …, priority 2017, dated 2023)
